From ChEMBL document CHEMBL1201862, “PubChem BioAssay data set” (2004)
Values joined by “and” are separate entries in the source; they are usually repeats but may differ in a detail not shown here. Equal values may be shown once.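 Assay format: 96-well plates, 48-hour exposure. GI50: concentration for 50% inhibition of growth.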 Active and inactive are the calls of the source. Cut-off read from the data, not from the text of the source: active = GI50 up to about 1.1 µM and inactive = higher.

Assays:
Experiment in all cases: growth of human tumour cells (NCI), 48 h
SN12C = test system: SN12C
T47D = test system: T47D
A549 = test system: A549
ACHN = test system: ACHN
SF-539 = test system: SF-539
U-251 = test system: U-251
SK-MEL-5 = test system: SK-MEL-5
MDA-MB-435 = test system: MDA-MB-435
MDA-MB-231 = test system: MDA-MB-231
MDA-N = test system: MDA-N
NCI-H226 = test system: NCI-H226
UACC-257 = test system: UACC-257
MOLT-4 = test system: MOLT-4
UO-31 = test system: UO-31
SF-295 = test system: SF-295
SNB-19 = test system: SNB-19
NCI-H460 = test system: NCI-H460
OVCAR-3 = test system: OVCAR-3
K562 = test system: K562
MCF7 = test system: MCF7
HCT-116 = test system: HCT-116
NCI/ADR-RES = test system: NCI/ADR-RES
CAKI-1 = test system: CAKI-1
RPMI-8226 = test system: RPMI-8226
OVCAR-5 = test system: OVCAR-5
NCI-H23 = test system: NCI-H23
OVCAR-8 = test system: OVCAR-8
CCRF-CEM = test system: CCRF-CEM
HCT-15 = test system: HCT-15
COLO 205 = test system: COLO 205
HCC 2998 = test system: HCC 2998
UACC-62 = test system: UACC-62
LOX IMVI = test system: LOX IMVI
SK-MEL-2 = test system: SK-MEL-2
PC-3 = test system: PC-3
HOP-92 = test system: HOP-92
M14 = test system: M14
EKVX = test system: EKVX
KM12 = test system: KM12
A498 = test system: A498
786-0 = test system: 786-0
SK-OV-3 = test system: SK-OV-3
SK-MEL-28 = test system: SK-MEL-28
IGROV-1 = test system: IGROV-1
SW-620 = test system: SW-620
HOP-62 = test system: HOP-62
DU-145 = test system: DU-145
SR = test system: SR
BT-549 = test system: BT-549
SNB-75 = test system: SNB-75
Malme-3M = test system: Malme-3M
HT-29 = test system: HT-29
RXF 393 = test system: RXF 393
SF-268 = test system: SF-268
OVCAR-4 = test system: OVCAR-4
Hs-578T = test system: Hs-578T
HL-60 = test system: HL-60
NCI-H522 = test system: NCI-H522
TK-10 = test system: TK-10

Measured: GI50

COC(=O)[C@]12CSC[C@H]1C[C@H](c1cccc3ccccc13)N2
inactive: SN12C > 100 µM | T47D > 100 µM | A549 93.3 µM | ACHN 39.4 µM | SF-539 > 100 µM | U-251 69.8 µM | SK-MEL-5 > 100 µM | MDA-MB-435 > 100 µM | MDA-MB-231 > 100 µM | MDA-N > 100 µM | NCI-H226 96.2 µM | UACC-257 > 100 µM | MOLT-4 18.2 µM | UO-31 > 100 µM | SF-295 > 100 µM | SNB-19 > 100 µM | NCI-H460 44.3 µM | OVCAR-3 > 100 µM | K562 35.1 µM | MCF7 57.7 µM | HCT-116 51.6 µM | NCI/ADR-RES > 100 µM | CAKI-1 > 100 µM | RPMI-8226 61.8 µM | OVCAR-5 > 100 µM | NCI-H23 91.2 µM | OVCAR-8 > 100 µM | CCRF-CEM 30.2 µM | COLO 205 > 100 µM | HCC 2998 > 100 µM | UACC-62 > 100 µM | LOX IMVI 94.6 µM | SK-MEL-2 > 100 µM | PC-3 > 100 µM | HOP-92 > 100 µM | M14 > 100 µM | EKVX > 100 µM | KM12 > 100 µM | A498 > 100 µM | 786-0 > 100 µM | SK-OV-3 > 100 µM | SK-MEL-28 > 100 µM | IGROV-1 43.1 µM | SW-620 > 100 µM | HOP-62 > 100 µM | DU-145 27.8 µM | SR 37.8 µM | BT-549 > 100 µM | SNB-75 > 100 µM
> 100 µM: HCT-15

COC(=O)CCC(C)[C@H]1CCC2C3C(C[C@H](OC(C)=O)[C@@]21C)[C@@]1(C)CCC2(C[C@H]1C[C@H]3OC(C)=O)OOC1(CCC(C)CC1)OO2 (some centres undefined)
active: UACC-62 < 0.01 µM
inactive: SN12C 34 µM and 33.4 µM | T47D 10.5 µM | Malme-3M 9.51 µM and 17.9 µM | ACHN 10.1 µM and 6.9 µM | SF-539 > 100 µM and 58.6 µM | U-251 9.16 µM and 5.16 µM | SK-MEL-5 15.7 µM and 9.79 µM | MDA-MB-231 14 µM and 20.2 µM | MDA-N 27.4 µM and 15.7 µM | HT-29 50.5 µM and 55.7 µM | RXF 393 72.3 µM | NCI-H226 56.6 µM and 31.8 µM | SNB-19 75 µM | OVCAR-3 7.1 µM and 6.27 µM | HCT-116 5.41 µM and 2.77 µM | NCI/ADR-RES > 100 µM and 67.9 µM | OVCAR-5 > 100 µM | CCRF-CEM 6.38 µM and 4.59 µM | HCC 2998 51.3 µM | LOX IMVI 7.8 µM and 5.15 µM | M14 32.4 µM and 18.2 µM | A498 > 100 µM | SK-OV-3 > 100 µM | SK-MEL-28 > 100 µM | SR 4.55 µM and 2.46 µM

COC(=O)C(Cc1ccccc1)NC(=O)CNC(=O)CSc1nnc(COc2ccc(Cl)cc2)n1-c1ccccc1 (centres undefined)
18.1 µM: HCT-15
inactive: SN12C 17.9 µM | SF-268 17.1 µM | T47D 12.5 µM | Malme-3M 18.7 µM | A549 17.8 µM | ACHN 14.2 µM | SF-539 17.6 µM | U-251 18.2 µM | SK-MEL-5 16.1 µM | MDA-MB-435 18.2 µM | MDA-MB-231 17 µM | HT-29 18.8 µM | RXF 393 16.7 µM | NCI-H226 16.5 µM | UACC-257 15.2 µM | MOLT-4 3.55 µM | UO-31 1.69 µM | SF-295 17.8 µM | SNB-19 17.2 µM | NCI-H460 16.3 µM | OVCAR-3 16.7 µM | K562 25.3 µM | MCF7 18.2 µM | HCT-116 17.8 µM | NCI/ADR-RES 20 µM | CAKI-1 12.7 µM | RPMI-8226 4.74 µM | OVCAR-5 18.7 µM | NCI-H23 18.7 µM | OVCAR-4 6.73 µM | OVCAR-8 13.7 µM | CCRF-CEM 2.86 µM | COLO 205 16.2 µM | HCC 2998 12 µM | UACC-62 14.5 µM | LOX IMVI 3.69 µM | SK-MEL-2 17 µM | PC-3 17.1 µM | HOP-92 17.4 µM | M14 17.7 µM | EKVX 20.4 µM | KM12 18.7 µM | A498 15.5 µM | 786-0 16.7 µM | SK-OV-3 14.5 µM | Hs-578T 26.5 µM | SK-MEL-28 18 µM | HL-60 4.8 µM | IGROV-1 15.4 µM | NCI-H522 2.27 µM | SW-620 20.4 µM | TK-10 14.5 µM | HOP-62 17.7 µM | DU-145 17.5 µM | SR 2.64 µM | BT-549 18.7 µM | SNB-75 17.9 µM
